Like-named read-outs stand apart in the source and are kept apart here.
Tests used:
hA2BAR = target: T1, hA2BAR (Homo sapiens, UniProt P29275); assay: Radioligand binding competition, [3H]DPCPX, membranes from HEK-293-A2B cells; parameters: Exp. dG: unit not given here; conditions: for Exp. dG: experimental binding free energy, Supplementary Table S3, unit not given (errors in kcal/mol); for % at 1 μM hA2B (percentage displacement of specific binding): [3H]DPCPX, human HEK-293 cells, n = 2
T1 construct: host or cells: HEK-293 (HEK-293-A2B) cell membranes
T1 sequence (P29275 1-332): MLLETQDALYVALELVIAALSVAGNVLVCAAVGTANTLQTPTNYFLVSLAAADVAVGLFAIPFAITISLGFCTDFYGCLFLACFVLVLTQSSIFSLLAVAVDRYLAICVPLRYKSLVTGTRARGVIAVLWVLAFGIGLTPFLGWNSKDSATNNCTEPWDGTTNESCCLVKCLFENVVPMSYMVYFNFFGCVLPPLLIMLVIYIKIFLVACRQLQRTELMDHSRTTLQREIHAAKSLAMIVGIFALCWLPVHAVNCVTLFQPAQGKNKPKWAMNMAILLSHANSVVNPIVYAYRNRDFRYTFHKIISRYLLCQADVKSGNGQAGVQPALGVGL
Procedure: (§1) All ligands reported in Tables 1–5 were obtained and tested as racemic mixtures. The whole set was evaluated in silico with a combination of a Rdkit[37] PAINS filter and Instant JChem from Chemaxon (https://www.chemaxon.com), to rule out the possibility that these ligands can be promiscuous pan-assay interference compounds (PAINS) and to assess their bioavailability, respectively. […] The stereoisomers of selected compounds were obtained by chiral resolution and tested at the four human AR subtypes in their enantiopure forms (Table 6).
(§2) A brief description is given below. […] Non-specific binding was determined in the presence of 10 μM R-PIA. The reaction mixture was incubated at 25 °C for 60 min. […] The reaction mixture was incubated at 25 °C for 30 min. […] The reaction mixture was incubated at 25 °C for 30 min. […] Non-specific binding was determined in the presence of 100 μM R-PIA. […] After the incubation time, membranes were washed and filtered and radioactivity was detected in a MicroBeta TriLux reader (PerkinElmer).

hA2AAR = target: T2, hA2AAR (Homo sapiens, UniProt P29274); assay: Radioligand binding competition, [3H]ZM241385, membranes from HeLa-A2A cells; conditions: for % at 1 μM hA2A (percentage displacement of specific binding): [3H]ZM241385, human HeLa cells, n = 2; for Ki: displacement of specific [3H]ZM241385 binding in human HeLa cells, n = 3, read-out: Ki hA2A
T2 construct: expressed in transfected cells; host or cells: HeLa (HeLa-A2A) cell membranes
T2 sequence (P29274 whole entry): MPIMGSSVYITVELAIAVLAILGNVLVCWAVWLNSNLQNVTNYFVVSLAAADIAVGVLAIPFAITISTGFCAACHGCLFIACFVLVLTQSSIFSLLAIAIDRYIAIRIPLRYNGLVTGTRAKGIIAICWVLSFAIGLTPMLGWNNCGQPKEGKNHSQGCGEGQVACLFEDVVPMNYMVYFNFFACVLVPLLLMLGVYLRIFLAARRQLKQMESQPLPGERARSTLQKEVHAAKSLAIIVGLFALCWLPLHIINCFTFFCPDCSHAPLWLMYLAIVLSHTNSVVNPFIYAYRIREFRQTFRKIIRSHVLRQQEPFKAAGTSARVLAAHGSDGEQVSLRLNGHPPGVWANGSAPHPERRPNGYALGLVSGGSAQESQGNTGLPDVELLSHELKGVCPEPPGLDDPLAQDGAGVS
Procedure: as §1, §2

hA1AR = target: T3, hA1AR (Homo sapiens, UniProt P30542); assay: Radioligand binding competition, [3H]DPCPX, membranes from CHO-A1 cells; conditions: 1 μM, [3H]DPCPX, human CHO cells, n = 2
T3 sequence (P30542 1-326): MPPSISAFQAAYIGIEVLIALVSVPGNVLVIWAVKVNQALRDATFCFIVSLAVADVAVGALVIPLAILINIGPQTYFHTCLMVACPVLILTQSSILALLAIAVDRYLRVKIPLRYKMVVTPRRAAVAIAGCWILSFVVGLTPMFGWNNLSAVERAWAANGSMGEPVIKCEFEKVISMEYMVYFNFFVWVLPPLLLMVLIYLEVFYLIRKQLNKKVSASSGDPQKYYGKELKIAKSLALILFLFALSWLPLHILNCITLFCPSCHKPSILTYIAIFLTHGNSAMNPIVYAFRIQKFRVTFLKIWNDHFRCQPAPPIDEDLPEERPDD
Procedure: as §1, §2

hA3AR = target: T4, hA3AR (Homo sapiens, UniProt P0DMS8); assay: Radioligand binding competition, [3H]NECA, membranes from HeLa-A3 cells; conditions: 1 μM, [3H]NECA, human HeLa cells, n = 2
T4 construct: expressed in transfected cells; host or cells: HeLa (HeLa-A3) cell membranes
T4 sequence (P0DMS8 1-318): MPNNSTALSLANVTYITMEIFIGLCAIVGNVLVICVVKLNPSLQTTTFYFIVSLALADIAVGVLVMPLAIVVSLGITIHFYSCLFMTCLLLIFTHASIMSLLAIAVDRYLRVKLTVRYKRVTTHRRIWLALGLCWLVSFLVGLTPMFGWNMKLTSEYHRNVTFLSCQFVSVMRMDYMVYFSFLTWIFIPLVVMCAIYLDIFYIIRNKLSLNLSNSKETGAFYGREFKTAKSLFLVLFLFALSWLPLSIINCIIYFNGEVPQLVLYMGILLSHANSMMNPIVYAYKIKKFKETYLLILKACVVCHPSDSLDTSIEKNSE
Procedure: as §1, §2

[1] = displacement of specific [3H]DPCPX binding in human HEK-293 cells, n = 3, read-out: Ki hA2B

SMILES	Ki (hA2BAR; [1]) [nM]	Exp. dG (hA2BAR)	% at 1 μM hA2A (percentage displacement of specific binding) (hA2AAR) [%]	% at 1 μM hA1 (percentage displacement of specific binding) (hA1AR) [%]	% at 1 μM hA3 (percentage displacement of specific binding) (hA3AR) [%]	% at 1 μM hA2B (percentage displacement of specific binding) (hA2BAR) [%]	Ki (hA2BAR; supplementary CSV, no unit printed (nM in Tables 2-5), read-out: Ki_hA2B) [nM]	Ki (hA2BAR; read-out: Ki hA2B) [nM]	Ki (hA2AAR) [µM]
CC1=C(C(=O)OC(C)C)C(c2ccsc2)n2c(nc3cc(F)ccc32)N1 (stereo not shown) [16h]	75.5 ± 3.2	-9.71	1	2	5	–	–	–	–
CCOC(=O)C1=C(C)Nc2nc3cc(Br)c(Br)cc3n2C1c1cccs1 (stereo not shown) [14u]	–	–	7	2	5	12	–	–	–
CC1=C(C(=O)OC(C)C)C(c2cccs2)n2c(nc3cc(Br)ccc32)N1 (stereo not shown) [16v]	115 ± 3	–	1	1	1	–	115	–	–
CCOC(=O)C1=C(C)Nc2nc3cc(Br)ccc3n2C1c1ccco1 (stereo not shown) [16q]	26.9 ± 0.8	–	29	18	33	–	–	–	–
CCOC(=O)C1=C(C)Nc2nc3cc(F)ccc3n2C1c1ccco1 (stereo not shown) [16a]	6.6 ± 1	-11.15	29	10	2	–	–	< 10	–
CCOC(=O)C1=C(C)Nc2nc3cc(Cl)ccc3n2C1c1cccs1 (stereo not shown) [16m]	–	–	2	3	1	41	–	–	–
CC1=C(C(=O)OC(C)C)[C@@H](c2ccoc2)n2c(nc3cc(Cl)ccc32)N1 [(R)-16l]	2.6 ± 0.3	–	–	37	24	–	–	–	0.0963 ± 0.006
CC1=C(C(=O)OC(C)C)C(c2ccco2)n2c(nc3ccc(Br)cc32)N1 (stereo not shown) [15r]	273 ± 4	–	1	46	6	–	–	~45	–
CC1=C(C(=O)OC(C)C)C(c2ccsc2)n2c(nc3cc(Cl)ccc32)N1 (stereo not shown) [16p]	165 ± 9	–	7	7	4	–	–	–	–
CCOC(=O)C1=C(C)Nc2nc3ccc(Br)cc3n2C1c1ccsc1 (stereo not shown) [15w]	–	–	3	4	3	43	–	–	–
CC1=C(C(=O)OC(C)C)C(c2ccoc2)n2c(nc3cc(Br)ccc32)N1 (stereo not shown) [16t]	8.2 ± 1.1	–	–	2	2	–	–	< 10	0.509 ± 0.006
CCOC(=O)C1=C(C)Nc2nc3cc(Cl)ccc3n2[C@@H]1c1cocn1 [(S)-18c]	3.39 ± 0.2	–	17	22	6	–	–	–	–
CCOC(=O)C1=C(C)Nc2nc3cc(Cl)c(Cl)cc3n2C1c1cccs1 (stereo not shown) [14m]	–	–	1	2	11	9	–	–	–
CC1=C(C(=O)OC(C)C)C(c2ccco2)n2c(nc3ccc(F)cc32)N1 (stereo not shown) [15b]	12.2 ± 1.2	-10.79	3	32	5	–	–	–	–
CC1=C(C(=O)OC(C)C)C(c2ccsc2)n2c(nc3ccc(Cl)cc32)N1 (stereo not shown) [15p]	–	–	9	7	3	48	–	–	–
CC1=C(C(=O)OC(C)C)C(c2ccco2)n2c(nc3cc(Cl)c(Cl)cc32)N1 (stereo not shown) [14j]	117 ± 5	–	12	43	7	–	–	–	–
CCOC(=O)C1=C(C)Nc2nc3ccc(F)cc3n2C1c1ccsc1 (stereo not shown) [15g]	1030 ± 95	-8.162	1	7	3	–	–	–	–
CCOC(=O)C1=C(C)Nc2nc3ccc(Br)cc3n2C1c1ccco1 (stereo not shown) [15q]	–	–	21	22	5	48	–	–	–
CC1=C(C(=O)OC(C)C)C(c2ccoc2)n2c(nc3cc(Br)c(Br)cc32)N1 (stereo not shown) [14t]	–	–	1	1	9	32	–	–	–
CCOC(=O)C1=C(C)Nc2nc3cc(Br)c(Br)cc3n2C1c1ccoc1 (stereo not shown) [14s]	–	–	2	2	10	7	–	–	–
CC1=C(C(=O)OC(C)C)C(c2cccs2)n2c(nc3cc(Cl)c(Cl)cc32)N1 (stereo not shown) [14n]	–	–	4	1	9	1	–	–	–
CCOC(=O)C1=C(C)Nc2nc3ccc(F)cc3n2C1c1ccoc1 (stereo not shown) [15c]	25 ± 1.5	-9.361	21	26	5	–	–	–	–
CC1=C(C(=O)OC(C)C)C(c2ccoc2)n2c(nc3ccc(F)cc32)N1 (stereo not shown) [15d]	136 ± 7	-10.36	11	25	6	–	–	–	–
CCOC(=O)C1=C(C)Nc2nc3ccc(Cl)cc3n2C1c1ccsc1 (stereo not shown) [15o]	–	–	2	4	3	50	–	–	–
CC1=C(C(=O)OC(C)C)C(c2cocn2)n2c(nc3cc(Cl)ccc32)N1 (stereo not shown) [18d]	6.4 ± 0.7	-11.17	35	23	23	–	–	< 10	–
CC1=C(C(=O)OC(C)C)C(c2ccoc2)n2c(nc3cc(F)ccc32)N1 (stereo not shown) [16d]	8.6 ± 0.5	-11	31	14	4	–	–	< 10	–
